From US6576622B1, “Drug combination for the treatment of viral diseases” (University of Medicine & Dentistry of New Jersey, priority 1995, dated 2003)

Columns and labels:
HIV-gpt = HIV-gpt colony formation after infection of HeLa-T4 cells in the presence of antiretroviral agents; type: cell-based; conditions: HeLa-T4; plasmid derived HIV-gpt (COS cells); AZT 10 μM, DDI 50 μM, D4T 50 μM; no drug control 8800
[1] = tested on: recombinant HIV, recombinant MLV, or replication-competent HIV; type: cell-based; conditions: Hela-T4, MLV-neo; for No. of persistently resistant colonies: AZT 10 uM, DDI 50 uM, DDC 10 uM, D4T 50 uM, resistant/tested; for Frequency: frequency of persistently resistant colonies
From the text: The presence of a selectable marker gene in the recombinant HIV allowed the isolation of cells infected by the recombinant viruses in the presence of d4T. These cells were characterized by infection with both additional recombinant viruses and by replication-competent viruses.
(§1) Table 6. Colony formation and persistent resistance after Hela-T4 cell infection with MLV-neo virus in the presence and absence of various antiviral agents.

HIV-LacZ = type: cell-based; conditions: for cross resistance of cell lines “persistently resistant” to AZT to other nucleoside analogs: d4T at 50 μM
MLV-neo = MLV-neo colony formation in the presence of antiviral agents; type: cell-based, Moloney Leukemia virus; conditions: Hela-T4, AZT 10 uM, DDI 50 uM, DDC 10 uM, D4T 50 uM, control 9050
Procedure: Production of recombinant HIV-gpt has been described elsewhere (26). The amphotropic cell line PA317 was transfected with the recombinant murine retrovirus pLXSN (36) and was used as the source of the recombinant MLV-neo virus. Stock preparations of HIV-1IIIB were harvested from H9 cells by the “shake off method” (13). Stock virus infectivity was determined by end-point dilution in MT-2 cells (32). Virus induced cytopathic effect was scored 7 days post-infection and the TCID50 was calculated with the Reed and Muench equation (33).
To confirm this high rate of infection in the absence of genetic drug resistance, we used several other recombinant viruses and host cells. […] A high rate of infection of Jurkat cells in the presence of d4T has also been seen.
Table 5. HIV-gpt produced in COS cells by transfection with plasmids (plasmid derived) is compared with HIV-gpt produced by, rescue from H9/HIV-gpt cell line after infection with HIV-IIIB and cells infected with MLV-neo.
as §1

[2] = HPLC analysis of phosphorylated AZT metabolites in clones incubated with 3H-AZT; type: in vitro ADME
Procedure: Cell lines were incubated with ^3H-thymidine or ^3H-AZT for 4 hours. Dried methanol extracts of the clones were redissolved in 60 μof distilled water and centrifuged to remove undissolved material. Twenty microliters of the sample was injected and separated on a 10×100 mm Rainin Hydropore anion exchange column. The nucleosides were eluted from the column with a linear gradient of potassium phosphate (5 mM to 1 M, pH4.0) at a flow rate of 1 ml/min. The samples were collected (0.5 ml), mixed with 5 ml Packard scintillation fluid, and quantitated using a liquid scintillation counter. Phosphorylated derivatives of thymidine and AZT were identified with authentic standards.
Pool sizes were determined by incubation of cells with ^3H-AZT for 4 hours followed by cellular extraction and HPLC. The numbers are expressed as pmoles/10^6 cells. The numbers in parentheses represent the percentage of total radioactive species in that pool.

[3] = S1 (sensitive) cell line, 3H-AZT for 4 hours, HPLC
[4] = R116 (“persistently resistant”) cell line, 3H-AZT for 4 hours, HPLC

Row | SMILES | No. of persistently resistant colonies [1] | Frequency [1] | cross resistance of cell lines “persistently resistant” to AZT to other nucleoside analogs (HIV-LacZ) | No. of colonies (MLV-neo) | concentration in cells [2, 3] [pmoles/10^6 cells] | percentage of total radioactive species in that pool [2, 3] [%] | concentration in cells ([2]; human, 4 h) [pmoles/10^6 cells] | percentage of total radioactive species in that pool ([2]; human, 4 h) [%] | other results
1 | O=c1[nH]cnc2c1ncn2[C@H]1CC[C@@H](CO)O1 [DDI] | 4/19 | 4.4 × 10^−4 | None of the “persistently resistant” cell lines were cross “resistant” | 19 | – | – | – | – | Number of colonies (HIV-gpt): 16; Number of “persistently resistance” colonies (HIV-LacZ; colonies from HIV-gpt infection of HeLa-T4 in presence of drug, resistant/tested): 2/16; Frequency (HIV-LacZ; frequency of persistently resistant colonies, HeLa-T4, plasmid derived HIV-gpt): 2.3 × 10^−4
2 | Cc1cn([C@H]2C[C@H](N=[N+]=[N-])[C@@H](COP(=O)(O)OP(=O)(O)O)O2)c(=O)[nH]c1=O [AZTDP, 3′-azido-3′-deoxythymidine diphosphate] | – | – | – | – | 0.0116 | 6.9 | 0.0193 | 9.6 | –
3 | Cc1cn([C@H]2C[C@H](N=[N+]=[N-])[C@@H](COP(=O)(O)O)O2)c(=O)[nH]c1=O [AZTMP, 3′-azido-3′-deoxythymidine monophosphate] | – | – | – | – | 0.1212 | 71.6 | – | – | concentration in cells [2, 4]: 0.1575 pmoles/10^6 cells; percentage of total radioactive species in that pool [2, 4]: 78.6%
4 | Nc1ccn([C@H]2CC[C@@H](CO)O2)c(=O)n1 [DDC] | 2/17 | 2.2 × 10^−4 | None of the “persistently resistant” cell lines were cross “resistant” | 17 | – | – | – | – | –
5 | Cc1cn([C@H]2C[C@H](N=[N+]=[N-])[C@@H](CO[P@](=O)(O)O[P@](=O)(O)OP(=O)(O)O)O2)c(=O)[nH]c1=O [AZTTP, 3′-azido-3′-deoxythymidine triphosphate] | – | – | – | – | 0.0158 | 9.3 | 0.0083 | 4.2 | reduction in AZTTP in R116 cells compared to S1 cells ([2]; 3H-AZT incubation): ~2 fold
